The subject of the assay is CD2F1 mice, L1210 leukemia ip, survival T/C. Put plainly: NCI In Vivo Anticancer Drug Screen. Data for tumor model L1210 Leukemia (intraperitoneal) in CD2F1 (CDF1) mice. Conditions: higher = longer survival. In short, it runs like this: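 Tumor-bearing mice (transplanted tumor) were split into treated and vehicle control groups, and the measured endpoint of each treated group was divided by that of its vehicle controls.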

The mark [1] stands for this setting: endpoint: mean survival time, dose: 12.5 mg/kg/injection, schedule: Q01DX009 (ip), vehicle: saline with Tween-80.
[2] abbreviates: endpoint: mean survival time, dose: 25.0 mg/kg/injection, schedule: Q01DX009 (ip), vehicle: saline with Tween-80.
Where [3] appears, read: endpoint: mean survival time, dose: 50.0 mg/kg/injection, schedule: Q01DX009 (ip), vehicle: saline with Tween-80.
Setting [4] is: endpoint: mean survival time, dose: 100.0 mg/kg/injection, schedule: Q04DX003 (ip), vehicle: saline with Tween-80.
[5] abbreviates: endpoint: mean survival time, dose: 200.0 mg/kg/injection, schedule: Q04DX003 (ip), vehicle: saline with Tween-80.
The mark [6] stands for this setting: endpoint: mean survival time, dose: 400.0 mg/kg/injection, schedule: Q04DX003 (ip), vehicle: saline with Tween-80.
[7] abbreviates: endpoint: mean survival time, dose: 100.0 mg/kg/injection, schedule: Q01DX001 (ip), vehicle: saline with Tween-80.
The mark [8] stands for this setting: endpoint: mean survival time, dose: 100.0 mg/kg/injection, schedule: Q01DX009 (ip), vehicle: saline with Tween-80.
Setting [9] is: endpoint: mean survival time, dose: 200.0 mg/kg/injection, schedule: Q01DX001 (ip), vehicle: saline with Tween-80.
The mark [10] stands for this setting: endpoint: mean survival time, dose: 200.0 mg/kg/injection, schedule: Q01DX009 (ip), vehicle: saline with Tween-80.
[11] abbreviates: endpoint: mean survival time, dose: 400.0 mg/kg/injection, schedule: Q01DX001 (ip), vehicle: saline with Tween-80.
[12] abbreviates: endpoint: mean survival time, dose: 400.0 mg/kg/injection, schedule: Q01DX009 (ip), vehicle: saline with Tween-80.
Setting [13] is: endpoint: mean survival time, dose: 6.25 mg/kg/injection, schedule: Q01DX009 (ip), vehicle: saline with Tween-80.
[14] abbreviates: endpoint: mean survival time, dose: 200.0 mg/kg/injection, schedule: Q01DX001 (ip), vehicle: saline.
Where [15] appears, read: endpoint: mean survival time, dose: 400.0 mg/kg/injection, schedule: Q01DX001 (ip), vehicle: saline.

Several values for one entry are separate records, joined by “and”; a condition that tells them apart may be missing. Equal values may be shown once. Inconclusive results and toxic doses are left out.

In the case of `OC1(c2ccccc2)CCN(C/C=C/c2ccc(Cl)cc2)CC1`, the T/C by setting is: (endpoint: median survival time, dose: 25.0 mg/kg/injection, schedule: Q04DX003 (ip), vehicle: saline with Tween-80) 100 % of control; (endpoint: median survival time, dose: 50.0 mg/kg/injection, schedule: Q04DX003 (ip), vehicle: saline with Tween-80) 90 % of control.

Regarding `Cc1cccnc1F`, the T/C is, setting by setting: under setting [1], 95 % of control; under setting [2], 97 % of control; under setting [3], 100 % of control; under setting [4], 93 % of control; under setting [5], 96 % of control; under setting [6], 96 % of control.

Turning to `C(CC1CCNCC1)CC1CCNCC1`, the T/C (endpoint: mean survival time, dose: 25.0 mg/kg/injection, schedule: Q04DX003 (ip), vehicle: saline with Tween-80) was 95 % of control and the T/C (endpoint: mean survival time, dose: 50.0 mg/kg/injection, schedule: Q04DX003 (ip), vehicle: saline with Tween-80) was 87 % of control.

Take `O=C(CC(O)C(Cl)(Cl)Cl)c1ccccc1` (stereo not given): the T/C is 88 % of control (endpoint: mean survival time, dose: 50.0 mg/kg/injection, schedule: Q04DX002 (ip), vehicle: saline with Tween-80) and 88 % of control (endpoint: mean survival time, dose: 100.0 mg/kg/injection, schedule: Q04DX002 (ip), vehicle: saline with Tween-80).

As to `Cc1cnc(Br)c(Br)c1`, the T/C was 101 % of control under setting [7]; 110 % of control under setting [8]; 101 % of control under setting [9]; 100 % of control under setting [10]; 103 % of control under setting [11]; 100 % of control under setting [12].

Regarding `CC(C)=CCC/C(C)=C/COc1ccc(/C=C2/C(=O)N(O)[C@@H](C)C(=O)N2O)cc1`, the T/C (endpoint: mean survival time, dose: 1.56 mg/kg/injection, schedule: Q01DX009 (ip), vehicle: saline with Tween-80) was 101 % of control; the T/C (endpoint: mean survival time, dose: 3.12 mg/kg/injection, schedule: Q01DX009 (ip), vehicle: saline with Tween-80) is 96 % of control; the T/C (endpoint: mean survival time, dose: 3.12 mg/kg/injection, schedule: Q01DX009 (ip), vehicle: saline) is 94 % of control; the T/C under setting [13] was 101 % of control; the T/C (endpoint: mean survival time, dose: 6.25 mg/kg/injection, schedule: Q01DX009 (ip), vehicle: saline) was 96 % of control; the T/C under setting [1] is 101 % of control. For the same molecule, the T/C (endpoint: mean survival time, dose: 12.5 mg/kg/injection, schedule: Q01DX009 (ip), vehicle: saline) is 100 % of control; the T/C under setting [2] is 106 % of control; the T/C (endpoint: mean survival time, dose: 25.0 mg/kg/injection, schedule: Q01DX009 (ip), vehicle: saline) was 108 % of control; the T/C under setting [3] was 112 % of control; the T/C (endpoint: mean survival time, dose: 50.0 mg/kg/injection, schedule: Q01DX009 (ip), vehicle: saline) was 100 % of control; the T/C (endpoint: mean survival time, dose: 100.0 mg/kg/injection, schedule: Q01DX009 (ip), vehicle: saline) was 100 % of control.

As for `O=C(O)CC(O)(CC(=O)O)C(=O)O`, the T/C was 106 % of control (endpoint: mean survival time, dose: 60.0 mg/kg/injection, schedule: Q01DX001 (ip), vehicle: saline); 96 % of control under setting [14]; 94 % of control under setting [15]; 100 % of control (endpoint: mean survival time, dose: 800.0 mg/kg/injection, schedule: Q01DX001 (ip), vehicle: saline).

Take `O=CC(CO)CC(C=O)n1cnc2c(=O)[nH]cnc21` (stereo not given): the T/C is, setting by setting: (endpoint: mean survival time, dose: 60.0 mg/kg/injection, schedule: Q01DX009 (ip), vehicle: saline) 123 % of control; (endpoint: mean survival time, dose: 89.0 mg/kg/injection, schedule: Q01DX009 (ip), vehicle: saline) 116 % of control; (endpoint: mean survival time, dose: 300.0 mg/kg/injection, schedule: Q01DX009 (ip), vehicle: saline) 159 % of control; (endpoint: mean survival time, dose: 300.0 mg/kg/injection, schedule: Q04DX003 (ip), vehicle: saline) 150 % of control; (endpoint: median survival time, dose: 37.5 mg/kg/injection, schedule: Q01DX009 (ip), vehicle: saline) 113 % of control and 124 % of control.

On to `CN(C)N=Nc1ccccc1-c1nc(N)c2ccccc2n1`, for which the T/C reads like this: (endpoint: mean survival time, dose: 6.25 mg/kg/injection, schedule: Q01DX005 (ip), vehicle: water) 103 % of control; (endpoint: mean survival time, dose: 12.5 mg/kg/injection, schedule: Q01DX005 (ip), vehicle: water) 88 % of control; (endpoint: mean survival time, dose: 25.0 mg/kg/injection, schedule: Q01DX005 (ip), vehicle: water) 109 % of control; (endpoint: mean survival time, dose: 50.0 mg/kg/injection, schedule: Q01DX005 (ip), vehicle: water) 117 % of control; (endpoint: mean survival time, dose: 100.0 mg/kg/injection, schedule: Q01DX005 (ip), vehicle: water) 98 % of control.

Turning to `O=C1C=CC(=O)N1c1nccs1`, the T/C is 91 % of control under setting [8], 95 % of control under setting [10] and 95 % of control under setting [12].

`CC1CCN1Cc1ccccc1` (stereo not given): the T/C runs as follows: (endpoint: mean survival time, dose: 12.5 mg/kg/injection, schedule: Q01DX009 (ip), vehicle: acetone) 98 % of control; (endpoint: mean survival time, dose: 25.0 mg/kg/injection, schedule: Q01DX009 (ip), vehicle: acetone) 98 % of control; (endpoint: mean survival time, dose: 50.0 mg/kg/injection, schedule: Q01DX009 (ip), vehicle: acetone) 95 % of control.

For `Cc1ccc(P(=S)(c2ccc(C)c3ccccc23)c2ccc(C)c3ccccc23)c2ccccc12`, the T/C (endpoint: mean survival time, dose: 100.0 mg/kg/injection, schedule: Q01DX001 (ip), vehicle: saline) was 91 % of control; the T/C under setting [14] was 97 % of control; the T/C under setting [15] was 91 % of control.

As for `COC(=O)C1C2C=CC(C3CCC23)C1C(=O)OC` (stereo not given), the T/C was 100 % of control under setting [8], 93 % of control under setting [10] and 91 % of control under setting [12].

In the case of `CCCCCCCCC(CCCCCCCC)CCCC1CCCC1`, the T/C was 95 % of control under setting [7], 110 % of control under setting [9] and 103 % of control under setting [11].

Take `Cc1ccc(NC(=O)OCCOc2ccc(-c3ccccc3)cc2)cc1[N+](=O)[O-]`: the T/C runs as follows: under setting [3], 98 % of control; under setting [8], 98 % of control; under setting [10], 94 % of control.

For `CCOC(=O)C1=C(N)SC(=O)C1`, the T/C runs as follows: under setting [4], 100 % of control; under setting [5], 104 % of control; under setting [6], 95 % of control.

Take `CC1(C)CCC23CCC4(C)C(CCC5C6(C)CCC(O)C(C)(C)C6CCC54C)C2C1OC3=O` (stereo not given): the T/C by setting is: (endpoint: mean survival time, dose: 6.25 mg/kg/injection, schedule: Q04DX002 (ip), vehicle: saline with Tween-80) 100 % of control; (endpoint: mean survival time, dose: 12.5 mg/kg/injection, schedule: Q04DX002 (ip), vehicle: saline with Tween-80) 103 % of control; (endpoint: mean survival time, dose: 25.0 mg/kg/injection, schedule: Q04DX002 (ip), vehicle: saline with Tween-80) 88 % of control and 103 % of control.

In the case of `COc1ccc(C(O)c2ccccn2)cc1` (stereo not given), the T/C runs as follows: under setting [8], 103 % of control; under setting [10], 97 % of control; under setting [12], 90 % of control.

In the case of `Cc1ccc(NC(=O)C(Cl)(Cl)Cl)cc1[N+](=O)[O-]`, the T/C is 102 % of control under setting [4], 96 % of control under setting [5] and 98 % of control under setting [6].

Regarding `CC(C)CCCC(C)C1CCC2C3=CCC4CC(=O)CCC4(C)C3CCC21C` (stereo not given), the T/C was 95 % of control under setting [4], 92 % of control under setting [5] and 93 % of control under setting [6].

On to `COc1cc(NC2CCCCC2O)c2nc(-c3ccc(Cl)cc3)ccc2c1` (stereo not given), for which the T/C was 110 % of control (endpoint: mean survival time, dose: 50.0 mg/kg/injection, schedule: Q04DX003 (ip), vehicle: saline); 96 % of control (endpoint: mean survival time, dose: 100.0 mg/kg/injection, schedule: Q04DX003 (ip), vehicle: saline); 107 % of control (endpoint: mean survival time, dose: 200.0 mg/kg/injection, schedule: Q04DX003 (ip), vehicle: saline); 112 % of control (endpoint: mean survival time, dose: 400.0 mg/kg/injection, schedule: Q04DX003 (ip), vehicle: saline).

Consider `CC(C(=O)O)C1CCC2C3CC=C4CC(O)CCC4(C)C3CCC12C` (stereo not given), for which the T/C runs as follows: under setting [4], 99 % of control; under setting [5], 100 % of control; under setting [6], 100 % of control.

Turning to `CCc1cccc[n+]1Cc1ccccc1`, the T/C was 95 % of control (endpoint: mean survival time, dose: 3.13 mg/kg/injection, schedule: Q01DX009 (ip), vehicle: saline with Tween-80); 91 % of control under setting [13]; 98 % of control under setting [1].

Consider `CCOC(=O)NCC(Cl)(Cl)Cl`, for which the T/C is, setting by setting: (endpoint: mean survival time, dose: 37.5 mg/kg/injection, schedule: Q01DX009 (ip), vehicle: saline with Tween-80) 98 % of control; (endpoint: mean survival time, dose: 75.0 mg/kg/injection, schedule: Q01DX009 (ip), vehicle: saline with Tween-80) 98 % of control; (endpoint: mean survival time, dose: 150.0 mg/kg/injection, schedule: Q01DX009 (ip), vehicle: saline with Tween-80) 102 % of control.

The values are drawn from PubChem BioAssay AID256 (DTP/NCI, 2004).
